From patent publication US20060020110A1, “Synthetic peptides that bind to the hepatitis B virus core and E antigens” (priority 2000, published 2006)

How the values were obtained:
[1] = target: T1, HBcAg (Hepatitis B virus genotype D subtype ayw, UniProt P03146); settings: peptide added prior to addition of mAb; uninhibited control mean OD 0.871
Source text: (§1) One approach to rational drug design involves sequential amino acid deletion of a known binding partner starting from either the amino or carboxy termini. Amino-terminal deletions of the binding partners of SEQ. ID. Nos. 5 and 17 were made and these peptide fragments were joined to a support and analyzed for the ability to bind HBcAg. […] ID. […] The amino-terminal deletions of the peptide of SEQ. ID. […] The amino-terminal deletion products of the peptide of SEQ. ID. […] ID.
Variations of the characterization assays described above include competitive binding assays. […] Initial experiments were conducted by contacting binding partner to HBcAg prior to introducing the antibody. […] ID. […] ID. […] ID. […] ID. […] ID. […] ID.

[2] = target: T1, HBcAg; settings: for OD at 490 nm, HBcAg binding to support-bound amino terminal deletion peptides: HBcAg added at 5 μg/ml; for OD at 405 nm to indicated antigen: HBcAg 0.2 μg/well / OD at 405 nm to indicated antigen: HBcAg 2 μg/well: support-bound peptide
Source text: as §1
To determine whether a candidate binding partner bound to HBcAg and/or HbeAg, a multimeric support-based binding assay was performed. Accordingly, synthetic peptides corresponding to the VH and VL domains of the sequenced mAbs were passively adsorbed to 96 well microplates in serial dilutions starting at 200 μg/ml. The peptide coated plates were then incubated with HBcAg and HBeAg serially diluted in PBS-GT. The amount of HBcAg and HBeAg bound by the peptides was then detected using a mAb directed to an epitope common to HBcAg and HBeAg (See Sällberg et al., J General Virology 74:1335-1340 (1993), herein expressly incorportaed by reference in its entirety) diluted 1:3000 in PBS-GT. The quantity of bound mAb was determined by addition by peroxidase labeled rabbit anti-mouse IgG (P260, Dako A S, Denmark). The plates were developed by incubation with ortho-phenylene-diamine (Sigma) and the absorbance at 492 nm was evaluated.
The converse of an aspect of this experiment was also performed. That is, various dilutions of support-bound binding partners (SEQ. ID. Nos. 5, 16, 17, 28, and 29) were contacted with 10 μg/ml of HBcAg and binding was evaluated. ID.

[3] = target: T1, HBcAg; settings: for OD at 490 nm, bound peptide SEQ. ID. No. 74: HBcAg coated 1 μg/ml, 5 μg SEQ. ID. No. 74 + 5 μg HBcAg peptide, no inhibitor OD 1.454; for Std. Deviation from the mean: deviation of the OD from the mean OD of all peptides
Description: In this experiment, microplates were coated overnight with 1 μg/ml HBcAg and, subsequently, a 100 μl mixture containing 5 μg of the peptide […] […] The HBcAg peptides were approximately 20 amino acids in length and corresponded to regions of HBcAg spanning amino acid residues 11-183. The experiment was performed in triplicate.

[4] = system: mAb specific for HSV gG2; experiment: gG2 mAb binding to fusion peptide on solid phase; settings: for gG2 mAb binding to indicated antigen on solid phase: fusion peptide: no addition of fusion peptide in solution
Source text: (§2) ID. […] The specificity exchangers provided in SEQ. ID. […] Similarly, the specificity exchangers provided in SEQ. ID.

[5] = target: T2, HBeAg (Hepatitis B virus genotype D subtype ayw, UniProt P0C573); experiment: Redirection of HSV gG2 mAb to HBeAg on solid phase by fusion peptide in solution; type: binding; settings: fusion peptide in solution 20 μg/well
T2 construct: containing nine residues of pre-core and the 150 first residues of HBcAg; made in house
T2 sequence (P0C573 21-179): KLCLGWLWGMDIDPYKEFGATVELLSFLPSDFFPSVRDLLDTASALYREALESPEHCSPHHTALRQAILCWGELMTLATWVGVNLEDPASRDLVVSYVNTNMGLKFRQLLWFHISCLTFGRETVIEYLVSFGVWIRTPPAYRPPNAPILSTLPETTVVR
Source text: as §2

[6] = target: T1, HBcAg; settings: fusion peptide in solution 20 μg/well
Description: To evaluate the efficacy of the specificity exchangers described above, several binding assays using a mAb specific for HSV gG2 were conducted. In one assay, the various specificity exchangers were coated onto microtiterplates and were bound with the mAb specific for HSV gG2. […] ID. […] In another assay, HBcAg was coated onto microtiter plates, specificity exchanger was added (20 μg/well), and the binding of the mAb specific for HSV gG2 was determined. […] ID. […] In another binding assay, HBeAg was coated onto microtiter plates, specificity exchanger was added (20 μg/well), and the binding of the mAb specific for HSV gG2 was determined. […] ID. […] The characterization assays used to evaluate binding partners can also be used and/or modified for the analysis of the specificity exchangers.

T1 sequence (P03146 whole entry, the tested form may be a part): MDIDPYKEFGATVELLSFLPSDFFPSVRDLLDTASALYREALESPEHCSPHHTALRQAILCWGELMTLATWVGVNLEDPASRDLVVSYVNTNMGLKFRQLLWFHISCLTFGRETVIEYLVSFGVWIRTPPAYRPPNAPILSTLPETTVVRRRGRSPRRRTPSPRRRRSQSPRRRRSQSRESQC

## VKLSCKASGYIFTS [SEQ. ID. No. 44]
[1]
  OD at 490 nm, mAb 4-2 binding to HBcAg: 0.152
[2]
  OD at 490 nm, HBcAg binding to support-bound amino terminal deletion peptides: 3.703

## SQSVSTSSYSYMHWY [SEQ. ID. No. 57]
[2]
  OD at 490 nm, HBcAg binding to support-bound amino terminal deletion peptides: 0.310

## GASVKLSCKASGYIFTS [SEQ. ID. No. 41]
[1]
  OD at 490 nm, mAb 4-2 binding to HBcAg: 0.205
[2]
  OD at 490 nm, HBcAg binding to support-bound amino terminal deletion peptides: 2.863

## ELTRLTSEDSAVYFCARGDY (Synthetically prepared amino acid sequence) [Peptide 9]
[2]
  OD at 405 nm to indicated antigen: HBcAg 0.2 μg/well: 0.195
  OD at 405 nm to indicated antigen: HBcAg 2 μg/well: 0.574

## GYIFTS [SEQ. ID. No. 52]
[1]
  OD at 490 nm, mAb 4-2 binding to HBcAg: 0.903
[2]
  OD at 490 nm, HBcAg binding to support-bound amino terminal deletion peptides: 0.414

## VSTSSYSYMHWY [SEQ. ID. No. 60]
[2]
  OD at 490 nm, HBcAg binding to support-bound amino terminal deletion peptides: 0.369

## PSPRRRRSQSPRRRRSQSRESQC [SEQ. ID. No. 111]
[3]
  OD at 490 nm, bound peptide SEQ. ID. No. 74: 0.678
  Std. Deviation from the mean: −0.734

## RASQSVSTSSYSYMHWY [SEQ. ID. No. 55]
[2]
  OD at 490 nm, HBcAg binding to support-bound amino terminal deletion peptides: 0.429

## LSCKASGYIFTS [SEQ. ID. No. 46]
[1]
  OD at 490 nm, mAb 4-2 binding to HBcAg: 0.777
[2]
  OD at 490 nm, HBcAg binding to support-bound amino terminal deletion peptides: 0.565

## VKLSCKASGYIFTSGGPEEFE [SEQ. ID. No. 76]
[4]
  gG2 mAb binding to indicated antigen on solid phase: fusion peptide: 0.018
[5]
  gG2 mAb binding to indicated antigen on solid phase: HBeAg: 0.024
[6]
  gG2 mAb binding to indicated antigen on solid phase: HBcAg: 0.025

## STSSYSYMHWY [SEQ. ID. No. 61]
[2]
  OD at 490 nm, HBcAg binding to support-bound amino terminal deletion peptides: 0.372

## LDTASALYREALESPEHCSP [SEQ. ID. No. 98]
[3]
  OD at 490 nm, bound peptide SEQ. ID. No. 74: 1.589
  Std. Deviation from the mean: 1.103

## AYRPPNAPILSTLPETTVVR [SEQ. ID. No. 108]
[3]
  OD at 490 nm, bound peptide SEQ. ID. No. 74: 1.564
  Std. Deviation from the mean: 1.052

## CKASGYIFTSYDIDWVRQTP (Synthetically prepared amino acid sequence) [Peptide 3]
[2]
  OD at 405 nm to indicated antigen: HBcAg 0.2 μg/well: 0.187
  OD at 405 nm to indicated antigen: HBcAg 2 μg/well: 0.525

## SDFFPSVRDLLDTASALYRE [SEQ. ID. No. 97]
[3]
  OD at 490 nm, bound peptide SEQ. ID. No. 74: 1.576
  Std. Deviation from the mean: 1.077

## TSSYSYMHWY [SEQ. ID. No. 62]
[2]
  OD at 490 nm, HBcAg binding to support-bound amino terminal deletion peptides: 0.317

## VKLSCKASGYIFTSHRGGPEE [SEQ. ID. No. 75]
[4]
  gG2 mAb binding to indicated antigen on solid phase: fusion peptide: 0.213
[4]; specificity exchanger coated onto microtiterplates
  Binding of mAb specific for HSV gG2 to coated specificity exchanger (in words): appreciably bound the mAb
[5]
  gG2 mAb binding to indicated antigen on solid phase: HBeAg: 0.032
[6]
  gG2 mAb binding to indicated antigen on solid phase: HBcAg: 0.037

## SSYSYMHWY [SEQ. ID. No. 63]
[2]
  OD at 490 nm, HBcAg binding to support-bound amino terminal deletion peptides: 0.311

## ASGYIFTS [SEQ. ID. No. 50]
[1]
  OD at 490 nm, mAb 4-2 binding to HBcAg: 0.920
[2]
  OD at 490 nm, HBcAg binding to support-bound amino terminal deletion peptides: 0.407

## CKASGYIFTS [SEQ. ID. No. 48]
[1]
  OD at 490 nm, mAb 4-2 binding to HBcAg: 0.851
[2]
  OD at 490 nm, HBcAg binding to support-bound amino terminal deletion peptides: 0.255

## SRDLVVSYVNTNMGLKFRQL [SEQ. ID. No. 103]
[3]; 5 μg HBcAg peptide + 5 μg SEQ. ID. No. 74, triplicate
  Effect on binding of peptide SEQ. ID. No. 74 to HBcAg (in words): consistently reduced the binding
[3]
  OD at 490 nm, bound peptide SEQ. ID. No. 74: 0.386
  Std. Deviation from the mean: −1.323

## LVTVSAAKTTPPSVYPLVPV (Synthetically prepared amino acid sequence) [Peptide 35]
[2]
  OD at 405 nm to indicated antigen: HBcAg 0.2 μg/well: 0.198
  OD at 405 nm to indicated antigen: HBcAg 2 μg/well: 0.59

## SCKASGYIFTS [SEQ. ID. No. 47]
[1]
  OD at 490 nm, mAb 4-2 binding to HBcAg: 0.784
[2]
  OD at 490 nm, HBcAg binding to support-bound amino terminal deletion peptides: 0.297

## SGYIFTS [SEQ. ID. No. 51]
[1]
  OD at 490 nm, mAb 4-2 binding to HBcAg: 0.887
[2]
  OD at 490 nm, HBcAg binding to support-bound amino terminal deletion peptides: 0.389
